In patent US20060293307A1, “Oxazolidinone derivatives as antimicrobials” (priority 2002, published 2006):

Tests used:
Assay in all cases: MIC, agar incorporation method
K. oxytoca 49131 = assay type: cell-based; conditions: S. No. 27, K. oxytoca 49131
P. aeruginosa ATCC 27853 = assay type: cell-based; conditions: S. No. 28, P. aeruginosa ATCC 27853
S. pneumoniae 1275 = assay type: cell-based, Streptococcus pneumoniae; conditions: S. No. 57, S. pneumoniae 1275
S. pneumoniae AB-3 = assay type: cell-based, Streptococcus pneumoniae; conditions: S. No. 32, S. pneumoniae AB-3
S pneumoniae 1294. = assay type: cell-based, Streptococcus pneumoniae; conditions: S. No. 55, S pneumoniae 1294.
Salmonella 205 = assay type: cell-based; conditions: S. No. 26, Salmonella 205
Summary of the method: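 Doubling dilutions of compound in DMSO were incorporated into Mueller-Hinton agar; 10^4 CFU/spot inoculated from 0.5 McFarland suspensions and incubated 18 h (24 h for MRSN studies). MIC = lowest concentration without visible growth; valid only when ATCC reference strains gave in-range MICs.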

S. haemo ATCC 29970 = assay type: cell-based; conditions: S. No. 15, S. haemo ATCC 29970
S. pyogenes 20361 = assay type: cell-based, Streptococcus pyogenes; conditions: S. No. 53, S. pyogenes 20361
[1] = test system: S. aureus (MRSA 33) Cipro R; assay type: cell-based, Staphylococcus aureus; conditions: S. No. 7, S. aureus (MRSA 33) Cipro R
E. faecalis SP 346 (VRE) = assay type: cell-based; conditions: S. No. 20, E. faecalis SP 346 (VRE)
S. pneumoniae AB4 = assay type: cell-based, Streptococcus pneumoniae; conditions: S. No. 33, S. pneumoniae AB4
S. pneumoniae CS1221 = assay type: cell-based, Streptococcus pneumoniae; conditions: S. No. 34, S. pneumoniae CS1221
S. pneumoniae AB 14 = assay type: cell-based, Streptococcus pneumoniae; conditions: S. No. 37, S. pneumoniae AB 14
S. pneumoniae 1251 = assay type: cell-based, Streptococcus pneumoniae; conditions: S. No. 54, S. pneumoniae 1251
S. pneumoniae 1256 = assay type: cell-based, Streptococcus pneumoniae; conditions: S. No. 56, S. pneumoniae 1256
E. faecium 6A (VRE) = assay type: cell-based, Enterococcus faecium; conditions: S. No. 21, E. faecium 6A (VRE)
S. epidermidis 823 = assay type: cell-based, Staphylococcus epidermidis; conditions: S. No. 12, S. epidermidis 823
E. durans 581 = assay type: cell-based; conditions: S. No. 24, E. durans 581
S. pneumoniae AB 23 = assay type: cell-based, Streptococcus pneumoniae; conditions: S. No. 43, S. pneumoniae AB 23
S. pneumoniae 217 = assay type: cell-based, Streptococcus pneumoniae; conditions: S. No. 38, S. pneumoniae 217
(MRSA) 562 = assay type: cell-based, Staphylococcus aureus; conditions: S. No. 8, (MRSA) 562
E. coli 25922 = assay type: cell-based; conditions: S. No. 25, E. coli 25922
S. pneumoniae ATCC 49619 = assay type: cell-based, Streptococcus pneumoniae; conditions: S. No. 48, S. pneumoniae ATCC 49619
S. pneumoniae AB 22 = assay type: cell-based, Streptococcus pneumoniae; conditions: S. No. 42, S. pneumoniae AB 22
S. epidermidis 358 = assay type: cell-based, Staphylococcus epidermidis; conditions: S. No. 14, S. epidermidis 358
Acinetobacter 9956 = assay type: cell-based; conditions: S. No. 30, Acinetobacter 9956
S. pneumoniae AB 16 = assay type: cell-based, Streptococcus pneumoniae; conditions: S. No. 39, S. pneumoniae AB 16
S. aureus (MRSA) 21299 = assay type: cell-based, Staphylococcus aureus; conditions: S. No. 5, S. aureus (MRSA) 21299
S. pneumoniae AB 34 = assay type: cell-based, Streptococcus pneumoniae; conditions: S. No. 49, S. pneumoniae AB 34
S. aureus ATCC 25923 = assay type: cell-based, Staphylococcus aureus; conditions: S. No. 1, organism cell empty
S. pneumoniae AB 30 = assay type: cell-based, Streptococcus pneumoniae; conditions: S. No. 47, S. pneumoniae AB 30
E. faecium 398(VRE) = assay type: cell-based, Enterococcus faecium; conditions: S. No. 22, E. faecium 398(VRE)

For “(S)—N-[[3-[-3-Fluoro-4-[(5-nitro-2-thienyl)-3-methyl-1-piperazinyl]phenyl]-2-oxo-5-oxazolidinyl]methyl]acetamide [Compound No. 10]”, the MIC (K. oxytoca 49131) was greater than 8 µg/mL, the MIC (P. aeruginosa ATCC 27853) was greater than 8 µg/mL and the MIC (S. pneumoniae 1275) was 0.25 µg/mL. It also gave an MIC (S. pneumoniae AB-3) of 0.5 µg/mL, an MIC (S pneumoniae 1294.) of 0.5 µg/mL and an MIC (Salmonella 205) greater than 8 µg/mL. The MIC (S. haemo ATCC 29970) was 0.25 µg/mL, the MIC (S. pyogenes 20361) was 0.5 µg/mL and the MIC [1] was 1 µg/mL. For the same substance, the MIC (E. faecalis SP 346 (VRE)) was 1 µg/mL, the MIC (S. pneumoniae AB4) was 0.5 µg/mL and the MIC (S. pneumoniae CS1221) was 0.5 µg/mL. The MIC (S. pneumoniae AB 14) was 0.5 µg/mL, the MIC (S. pneumoniae 1251) was 0.5 µg/mL and the MIC (S. pneumoniae 1256) was 0.25 µg/mL. The MIC (E. faecium 6A (VRE)) was 1 µg/mL, the MIC (S. epidermidis 823) was 0.5 µg/mL and the MIC (E. durans 581) was 0.5 µg/mL. The MIC (S. pneumoniae AB 23) was 0.5 µg/mL, the MIC (S. pneumoniae 217) was 0.5 µg/mL and the MIC ((MRSA) 562) was 1 µg/mL. The MIC (E. coli 25922) was greater than 8 µg/mL, the MIC (S. pneumoniae ATCC 49619) was 0.5 µg/mL and the MIC (S. pneumoniae AB 22) was 0.5 µg/mL. For the same substance, the MIC (S. epidermidis 358) was 0.5 µg/mL, the MIC (Acinetobacter 9956) was greater than 8 µg/mL and the MIC (S. pneumoniae AB 16) was 0.5 µg/mL. For the same substance, the MIC (S. aureus (MRSA) 21299) was 1 µg/mL, the MIC (S. pneumoniae AB 34) was 1 µg/mL and the MIC (S. aureus ATCC 25923) was 1 µg/mL. It also gave an MIC (S. pneumoniae AB 30) of 0.25 µg/mL and an MIC (E. faecium 398(VRE)) of 0.5 µg/mL.
